Laboratory results from patent US20110178104A1, “Anti-Heparin Compounds” (POLYMEDIX INC., priority 2010, published 2011).

Tests used:
fondaparinux = assay: FXa amidolytic assay (Example 10), fondaparinux; conditions: read-out: Fondap FXa EC50; fondaparinux 0.02 μg/mL; human antithrombin, bovine Factor Xa
Experimental: (§1) Two μl of test agent are added (range between 0.01 and 23 ug/ml) and incubated for 5 minutes at 23° C. Bovine Factor Xa was added to a final concentration of 0.636 nkat/mL and incubated for a further 10 minutes at 23° C.

tinzaparin = assay: FXa amidolytic assay (Example 10), tinzaparin; conditions: read-out: Tinzap FXa EC50; tinzaparin 0.1 ug/ml; human antithrombin, bovine Factor Xa
Experimental: as §1

enoxaparin = assay: FXa amidolytic assay (Example 10), enoxaparin; conditions: read-out: Enox FXa EC50; enoxaparin 0.1 ug/ml; human antithrombin, bovine Factor Xa
Experimental: as §1

Unfractionated heparin = assay: aPTT clotting assay, UFH 0.4 U/mL in plasma (Example 10); format: biochemical; conditions: unfractionated heparin 0.4 U/mL in plasma; aPTT clotting
Experimental: aPTT clotting Assay: Unfractionated heparin was mixed with plasma at a final concentration of 0.4 U/mL (or concentration which increases aPTT time to between 120 and 300 seconds). […] The ACL Elite Hemostasis analyzer (Beckman Coulter™) was used to add aPTT reagent (HemosIL SynthASil) to supplemented plasma. Clotting was initiated by addition of CaCl2 and time to clot was recorded.

Row | Compound | EC50 (fondaparinux) [µM] | EC50 (tinzaparin) [µM] | EC50 (enoxaparin) [µM] | EC50 (Unfractionated heparin) [µM]
1 | COc1ccc(NC(=O)[C@H](CCCNC(=N)N)NC(=O)c2cc(NC(=O)[C@H](CCCNC(=N)N)NC(=O)c3cc(NC(=O)[C@H](CCCNC(=N)N)NC(=O)c4cc(NC(C)=O)ccc4OC)ccc3OC)ccc2OC)cc1C(=O)N[C@@H](Cc1ccc(O)cc1)C(=O)O [Compound 301] | 0.295 | 0.278 | 0.276 | 6.08
2 | COc1ccc(NC(C)=O)cc1C(=O)N[C@@H](CCCNC(=N)N)C(=O)Nc1ccc(OC)c(C(=O)N[C@@H](CCCNC(=N)N)C(=O)Nc2ccc(OC)c(C(=O)N[C@@H](CCCNC(=N)N)C(=O)Nc3ccc(OC)c(C(=O)N[C@H](Cc4ccc(O)cc4)C(=O)O)c3)c2)c1 [Compound 302] | 0.491 | 0.278 | 0.298 | 10.6
3 | COc1ccc(NC(=O)[C@H](CCC(=O)O)NC(=O)c2cc(NC(=O)[C@H](CCCCN)NC(=O)c3cc(NC(=O)[C@H](CCCCN)NC(=O)c4cc(NC(=O)[C@@H](N)CCCCN)ccc4OC)ccc3OC)ccc2OC)cc1C(N)=O [Compound 315] | > 10 | 0.492 | 1.79 | 2.05
4 | COc1ccc(NC(=O)[C@H](CCCCN)NC(=O)c2cc(NC(=O)[C@H](CCC(=O)O)NC(=O)c3cc(NC(=O)[C@H](CCCCN)NC(=O)c4cc(NC(=O)[C@@H](N)CCCCN)ccc4OC)ccc3OC)ccc2OC)cc1C(N)=O [Compound 316] | 1.75 | 0.223 | 0.329 | 2.04
5 | COc1ccc(NC(=O)[C@H](CCCCN)NC(=O)c2cc(NC(=O)[C@H](CCCCN)NC(=O)c3cc(NC(=O)[C@H](CCCCN)NC(=O)c4cc(NC(=O)[C@@H](N)CCC(=O)O)ccc4OC)ccc3OC)ccc2OC)cc1C(N)=O [Compound 318] | 3.05 | 0.261 | 0.407 | 1.41
6 | COc1ccc(NC(=O)[C@@H](CCC(=O)O)NC(=O)c2cc(NC(=O)[C@@H](CCCNC(=N)N)NC(=O)c3cc(NC(=O)[C@@H](CCCNC(=N)N)NC(=O)c4cc(NC(=O)[C@H](N)CCCNC(=N)N)ccc4OC)ccc3OC)ccc2OC)cc1C(N)=O [Compound 319] | 1.05 | 0.178 | 0.276 | 2.44
7 | COc1ccc(NC(=O)[C@@H](CCCNC(=N)N)NC(=O)c2cc(NC(=O)[C@@H](CCC(=O)O)NC(=O)c3cc(NC(=O)[C@@H](CCCNC(=N)N)NC(=O)c4cc(NC(=O)[C@H](N)CCCNC(=N)N)ccc4OC)ccc3OC)ccc2OC)cc1C(N)=O [Compound 320] | 4.89 | 0.285 | 0.901 | 2.42
8 | COc1ccc(NC(=O)[C@H](CCC(=O)O)NC(=O)c2cc(NC(=O)[C@H](CCCNC(=N)N)NC(=O)c3cc(NC(=O)[C@H](CCCNC(=N)N)NC(=O)c4cc(NC(=O)[C@@H](N)CCCNC(=N)N)ccc4OC)ccc3OC)ccc2OC)cc1C(N)=O [Compound 323] | 1.16 | 0.25 | 0.326 | 2.96
9 | COc1ccc(NC(=O)[C@H](CCCNC(=N)N)NC(=O)c2cc(NC(=O)[C@H](CCC(=O)O)NC(=O)c3cc(NC(=O)[C@H](CCCNC(=N)N)NC(=O)c4cc(NC(=O)[C@@H](N)CCCNC(=N)N)ccc4OC)ccc3OC)ccc2OC)cc1C(N)=O [Compound 324] | 3.84 | 0.438 | 0.784 | 2.93
10 | COc1ccc(NC(=O)[C@H](CCCNC(=N)N)NC(=O)c2cc(NC(=O)[C@H](CCCNC(=N)N)NC(=O)c3cc(NC(=O)[C@H](CCCNC(=N)N)NC(=O)c4cc(NC(=O)[C@@H](N)CCC(=O)O)ccc4OC)ccc3OC)ccc2OC)cc1C(N)=O [Compound 326] | 0.549 | 0.234 | 0.289 | 1.99
11 | COc1ccc(NC(=O)[C@H](CCCCN)NC(=O)c2cc(NC(=O)[C@H](CCCCN)NC(=O)c3cc(NC(=O)[C@H](CCCCN)NC(=O)c4cc(N)ccc4OC)ccc3OC)ccc2OC)cc1C(N)=O [Compound 327] | 6.77 | 0.47 | 1.03 | 1.93
12 | COc1ccc(NC(=O)[C@H](CCCCN)NC(=O)c2cc(NC(=O)[C@H](CCCCN)NC(=O)c3cc(NC(=O)[C@H](CCCCN)NC(=O)c4cc(NC(C)=O)ccc4OC)ccc3OC)ccc2OC)cc1C(N)=O [Compound 328] | 2.33 | 0.257 | 0.448 | 1.88
13 | COc1ccc(NC(=O)[C@H](CCCCN)NC(=O)c2cc(NC(=O)[C@H](CCCCN)NC(=O)c3cc(NC(=O)[C@H](CCCCN)NC(=O)c4cc(NC(=O)[C@H](CCCCN)NC(=O)CCC(=O)O)ccc4OC)ccc3OC)ccc2OC)cc1C(N)=O [Compound 339] | 1.9 | 0.235 | 0.272 | 0.91
14 | COc1ccc(NC(=O)[C@H](CCCCN)NC(=O)c2cc(NC(=O)[C@H](CCCCN)NC(=O)c3cc(NC(=O)[C@H](CCCCN)NC(=O)c4cc(NC(=O)[C@H](CCCCN)NC(=O)c5cccc(C(=O)O)c5)ccc4OC)ccc3OC)ccc2OC)cc1C(N)=O [Compound 342] | 0.167 | 0.147 | 0.153 | 2.35
15 | COc1ccc(NC(=O)[C@H](CCCCN)NC(=O)c2cc(NC(=O)[C@H](CCCCN)NC(=O)c3cc(NC(=O)[C@H](CCCCN)NC(=O)c4cc(NC(=O)[C@H](CCCCN)NC(=O)CCCC(=O)O)ccc4OC)ccc3OC)ccc2OC)cc1C(N)=O [Compound 344] | 2.06 | 0.244 | 0.392 | 0.68
16 | COc1ccc(NC(=O)[C@H](CCCCN)NC(=O)c2cc(NC(=O)[C@H](CCCCN)NC(=O)c3cc(NC(=O)[C@H](CCCCN)NC(=O)c4cc(NC(=O)[C@H](CCCCN)NC(=O)COCC(=O)O)ccc4OC)ccc3OC)ccc2OC)cc1C(N)=O [Compound 345] | 0.911 | 0.205 | 0.233 | 2.99
17 | COc1cc(OC)c(C(=O)NCCCNC(=O)c2cc(C(=O)NCCCNC(=O)c3cc(C(=O)NCCN)c(OC)cc3OC)c(OC)cc2OC)cc1C(=O)NCCN [Compound 391] | > 10 | > 5 | > 5 | > 10
18 | COc1cc(OC)c(C(=O)NCCCNC(=O)c2cc(C(=O)NCCN)c(OC)cc2OC)cc1C(=O)O [Compound 392] | > 10 | > 5 | > 5 | > 10
19 | COc1cc(OC)c(C(=O)NC2CCN(C(=O)c3cc(C(=O)N4CCC(NC(=O)c5cc(C(=O)NCCN)c(OC)cc5OC)CC4)c(OC)cc3OC)CC2)cc1C(=O)NCCN [Compound 393] | > 10 | > 5 | > 5 | > 10
20 | COc1cc(OC)c(C(=O)N2CCC(NC(=O)c3cc(C(=O)NCCN)c(OC)cc3OC)CC2)cc1C(=O)O [Compound 394] | > 10 | > 5 | > 5 | > 10
21 | COc1cc(OC)c(C(=O)NCC2CCN(C(=O)c3cc(C(=O)N4CCC(CNC(=O)c5cc(C(=O)NCCN)c(OC)cc5OC)CC4)c(OC)cc3OC)CC2)cc1C(=O)NCCN [Compound 395] | > 10 | > 5 | > 5 | > 10
22 | COc1cc(OC)c(C(=O)N2CCC(CNC(=O)c3cc(C(=O)NCCN)c(OC)cc3OC)CC2)cc1C(=O)O [Compound 396] | > 10 | > 5 | > 5 | > 10
23 | COc1cc(OC)c(C(=O)N[C@H]2CC[C@H](NC(=O)c3cccc(C(=O)O)c3)CC2)cc1C(=O)NCCN [Compound 399] | > 10 | > 5 | > 5 | > 10
24 | COc1cc(OC)c(C(=O)N[C@H]2CC[C@H](NC(=O)c3cncc(C(=O)O)c3)CC2)cc1C(=O)NCCN [Compound 401] | > 10 | > 5 | > 5 | > 10
25 | COc1cc(OC)c(C(=O)N[C@H]2CC[C@H](NC(=O)c3cc(C(=O)O)ncn3)CC2)cc1C(=O)NCCN [Compound 403] | > 10 | > 5 | > 5 | > 10
26 | COc1cc(OC)c(C(=O)N[C@H]2CC[C@@H](NC(=O)c3cc(C(=O)N[C@H]4CC[C@@H](N=C(N(C)C)N(C)C)CC4)c(OC)cc3OC)CC2)cc1C(=O)NCCCN [Compound 405] | > 10 | > 5 | > 5 | > 10
27 | COc1cc(OC)c(C(=O)N[C@H]2CC[C@H](NC(=O)c3cc(C(=O)NCCCN)c(OC)cc3OC)CC2)cc1C(=O)O [Compound 407] | > 10 | > 5 | > 5 | > 10
28 | COc1cc(OC)c(C(=O)NCCCNC(=O)c2cc(C(=O)NCCCNC(=O)c3cc(C(=O)NCCCN)c(OC)cc3OC)c(OC)cc2OC)cc1C(=O)NCCCN [Compound 408] | > 10 | > 5 | > 5 | > 10
29 | COc1cc(OC)c(C(=O)NCCCNC(=O)c2cc(C(=O)NCCCN)c(OC)cc2OC)cc1C(=O)O [Compound 409] | > 10 | > 5 | > 5 | > 10
30 | COc1cc(OC)c(C(=O)N[C@H]2CC[C@@H](NC(=O)c3cc(C(N)=O)c(OCCCCCN)cc3OCCCCCN)CC2)cc1C(=O)N[C@H]1CC[C@@H](NC(=O)c2cc(C(N)=O)c(OCCCCCN)cc2OCCCCCN)CC1 [Compound 412] | 0.197 | 0.113 | 0.125 | 0.687
